In experiment [1] the test system is immortalized BMDMs. Briefly: TNF-α secretion in immortalized BMDMs (WT or TLR4-KO) incubated with CL or LPS. It is filed as cell-based, murine. Conditions: CL alone, overnight, immortalized BMDM. As for the experimental part: Immortalized BMDM were seeded the day before the experiment at 5 × 10^5 cells/mL in 48-well plates (500 μL/well).
After stimulation, supernatants were collected, centrifuged, and assayed for cytokine secretion, while cells were assayed for viability.
TNF-α and IP-10 were quantified in cell supernatants using DuoSet ELISA kits from R&D Systems and human IL-1β using Instant ELISA™ Kit from Invitrogen, according to the manufacturer’s instructions. Absorbance was read with a BioTek Synergy HT Microplate Readers.
(§1) Fig. 3 Saturated but not unsaturated CLs have pro-inflammatory properties. a RAW-Blue™ cells were incubated overnight with the indicated amount of CL or LPS, supernatants were collected, and NF-κB activation quantified via Quanti-Blue™ test and reported here as fold induction as compared to control. Unpaired t test: differences with respect to the control (Ctrl) are not significant if p > 0.05 (no symbol); *p ≤ 0.0007. b Immortalized BMDM cells were incubated overnight with the indicated amount of CL or LPS; supernatants were collected and TNF-α quantified via ELISA assay. c, d Primary human monocytes were incubated overnight with the indicated amount of CL or LPS with or without the NLRP3 inhibitor MCC950, supernatants were collected, and TNF-α and IL-1β were quantified via ELISA assay. Graphs are representative of experiments from six different donors. Unpaired t test: differences with respect to the control (Ctrl) are not significant if p > 0.05 (no symbol); *p ≤ 0.021. Each bar represents the mean + standard deviation of three biological replicates (n = 3). Graphs are representative of at least three independent experiments
(§2) Fig. 4 Saturated CLs are TLR4 agonists. a HEK293 cells were transfected with plasmids encoding murine TLR4, MD2, and CD14 (mTLR4), human TLR4, MD2, and CD14 (hTLR4) or with empty pcDNA3.1 plasmid, MD2 and CD14 (w/o TLR) together with a luciferase reporter plasmid dependent on NF-κB activation and a constitutively active reporter vector-encoding renilla luciferase. Two days after transfection, cells were incubated for 6 h with medium alone (Ctrl) or the indicated amount of CLs or LPS. Luciferase and renilla were quantified in cell lysate, normalized and reported here as fold induction as compared to control. Unpaired t test: differences compared to the control are not significant if p > 0.05(no symbol); *p ≤ 0.005. b WT and TLR4-KO iBMDM cells were incubated overnight with medium (c), LPS or C14:0 CL. For each condition, mTNF-α was measured by ELISA assay. Unpaired t test: differences with respect to the control are not significant if p > 0.05(no symbol); *p ≤ 0.0001. Each bar represents the mean + standard deviation of three biological replicates (n = 3). Graphs are representative of at least three independent experiments

Experiment [2] concerns the target T1, human TLR4/MD2/CD14 (Homo sapiens, UniProt O00206+Q9Y6Y9).
T1 construct: expressed in transfected cells; host or cells: HEK293 (ATCC CRL1573), transient transfection with jetPEI
The experiment in a line: Inhibition of LPS-induced NF-κB luciferase reporter in HEK293 cells transfected with human TLR4/MD2/CD14. The format is cell-based. Conditions: for inhibition of LPS-induced signaling (LPS dose-response, 0 to 1000 ng/mL), mode of action: 1 h CL pre-incubation. As for the experimental part:
(§3) Cells were seeded at 4 × 10^4 cells/mL in 96-well plates (200 μL/well) and transiently transfected 4 days later. Expression vectors containing an NF-κB transcription reporter vector-encoding firefly luciferase (10 ng/well pNF-κB-luc from Clontech), and a constitutively active reporter vector-encoding Renilla luciferase (5 ng/well phRG-TK; Promega), together with empty vector (pcDNA3.1 from Invitrogen Cat. N. V79020) and cDNA encoding human membrane CD14 (3 ng/well) and human or murine TLR4 and MD2 (3 ng/well) were mixed with jetPEI (Polyplus transfection Cat.N. 101-10N) and incubated with cells according to the manufacturer’s instructions.
(§4) After treatment supernatants were discarded, cells were washed with PBS and lysed with passive lysis buffer (Promega Cat.N. E1941). Luciferase and Renilla activity on cell lysates were quantified on a BioTek Synergy HT microplate reader using home-made luciferase reagent (20 mM Tricine, 2.67 mM MgSO4·7H2O, 0.265 mM (MgCO3)4Mg(OH)2·5H2O, 0.1 mM EDTA, 33.3 mM DTT, 530 μM ATP, 270 μM Acetyl Coenzyme A (Lithium salt), 470 μM luciferin (Biosynth), pH 7.8, diluted two times in water before use), or coelenterazine (Biosynth) dissolved in ethanol at 1 mg/mL and diluted 500 times in PBS before use as previously described. Firefly and Renilla luciferase activity on cell lysates were normalized, and data were expressed as fold induction as compared to unstimulated conditions.
In contrast to C16:0 and C18:0, C14:0 CL acted as an agonist in murine but not human cells (Fig. 3), a property similar to that of the LPS variant lipid IVa. to establish whether C14:0, like lipid IVa, is a weak human TLR4 antagonist, we tested the ability of all saturated CLs to inhibit signaling induced by LPS over a range of concentrations. For each CL, cells transfected with human TLR4/MD2/CD14 were pre-incubated with medium alone or two different CL concentrations for 1 h, and then washed and incubated for 6 h with increasing amounts of LPS (from 0 to 1000 ng/mL). […] The dose–response curve of LPS was shifted to the right.
(§5) Fig. 6 C14:0 is a competitive human TLR4 antagonist. HEK293 cells were transfected with plasmids encoding hTLR4, hMD2, and hCD14 together with a luciferase reporter plasmid dependent on NF-κB activation and a constitutively active reporter vector-encoding renilla luciferase. Two days after transfection, cells were incubated for 1 h with medium alone or the indicated amount of CLs, then washed and incubated 6 h with increasing amount of LPS. Luciferase and renilla were then quantified in cell lysate, and normalized and reported here as fold induction as compared to control. Each bar represents the mean ± standard deviation of three biological replicates (n = 3). Graphs are representative of at least three independent experiments
as §5, with “7 Unsaturated cardiolipins are” for “6 C14:0 is a”, “antagonists.” for “antagonist.”, “CLs, and” for “CLs,”
To quantify and compare the potency of CLs as inhibitors, we determined IC50 values in HEK293 cells transfected with human TLR4/MD2/CD14, for each of the antagonists (Fig. 8 and Table 1). […]
Background: Reporter assays use an easily measured gene product as a stand-in for the process of interest.

For experiment [3], the system named is RAW-Blue cells. Briefly: NF-κB activation (SEAP, Quanti-Blue) by CL or LPS in RAW-Blue cells. Conditions: CL alone, overnight. The format is cell-based, murine. As for the experimental part:
RAW-Blue™ cells were seeded the day before the experiment at 5 × 10^5 cells/mL in 48-well plates (500 μL/well).
These cells express a secreted embryonic alkaline phosphatase (SEAP) when NF-κB is activated. NF-κB activation was measured by measuring the alkaline phosphatase produced by RAW-Blue™ cells using the Quanti-Blue™ reagent (InvivoGen), according to the manufacturer’s instructions.
as §1

Experiment [4] deals with T2, human TLR4, MD2, and CD14 (Homo sapiens, UniProt O00206+Q9Y6Y9).
T2 construct: expressed in transfected cells; host or cells: HEK293 (ATCC CRL1573), transient transfection with jetPEI
T2 sequence (O00206 24-839): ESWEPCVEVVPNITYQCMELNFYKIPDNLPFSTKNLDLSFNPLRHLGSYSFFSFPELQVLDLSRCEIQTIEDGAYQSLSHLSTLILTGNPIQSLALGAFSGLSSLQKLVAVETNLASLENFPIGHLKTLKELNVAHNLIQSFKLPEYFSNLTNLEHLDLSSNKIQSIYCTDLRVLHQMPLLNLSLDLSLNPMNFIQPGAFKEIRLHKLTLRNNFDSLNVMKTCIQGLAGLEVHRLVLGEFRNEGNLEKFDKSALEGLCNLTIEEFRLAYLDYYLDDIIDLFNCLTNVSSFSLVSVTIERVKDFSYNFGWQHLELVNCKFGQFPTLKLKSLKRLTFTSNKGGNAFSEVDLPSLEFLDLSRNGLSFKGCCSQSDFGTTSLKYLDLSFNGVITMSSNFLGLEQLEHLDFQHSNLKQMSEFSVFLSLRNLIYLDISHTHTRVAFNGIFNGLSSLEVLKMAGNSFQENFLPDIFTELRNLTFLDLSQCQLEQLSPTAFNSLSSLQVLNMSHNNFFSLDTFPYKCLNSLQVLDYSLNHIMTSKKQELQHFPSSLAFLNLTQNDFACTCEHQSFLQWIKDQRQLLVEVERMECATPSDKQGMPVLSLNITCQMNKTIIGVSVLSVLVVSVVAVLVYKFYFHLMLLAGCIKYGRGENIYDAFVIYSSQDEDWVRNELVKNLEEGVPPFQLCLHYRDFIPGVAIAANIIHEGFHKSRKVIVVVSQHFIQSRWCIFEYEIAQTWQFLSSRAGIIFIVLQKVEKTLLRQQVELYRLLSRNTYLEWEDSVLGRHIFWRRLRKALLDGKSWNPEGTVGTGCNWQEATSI
T2 sequence (Q9Y6Y9 19-160): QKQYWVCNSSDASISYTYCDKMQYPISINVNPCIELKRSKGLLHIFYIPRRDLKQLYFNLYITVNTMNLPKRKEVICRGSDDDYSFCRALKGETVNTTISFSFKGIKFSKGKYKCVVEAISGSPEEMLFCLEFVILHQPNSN
The experiment in a line: NF-κB luciferase reporter activation by CLs in HEK293 cells transfected with human TLR4, MD2 and CD14. It is filed as cell-based. As for the experimental part: as §3, §4
The first signaling event of these pathways is NF-κB activation through TLR4 activation. To investigate how the individual CD14, TLR4, and MD2 proteins contribute to the responses of cells to CL, we used the HEK transfection model where we can control which protein (including from different species) may be added to the cells and their contribution to CL activation of Nf-κB [21, 30, 31]. We transfected HEK293 cells with human or murine CD14 and MD2 with or without TLR4 and incubated them with saturated CLs for 6 h (Fig. 4a). All three saturated CLs activated murine TLR4. By contrast, only C16:0 and C18:0 activated the human receptor. To further confirm the role of TLR4, we compared TNF-α secretion induced by C14:0 CL in wild-type (WT) or TLR4 knock out (TLR4 KO) immortalized BMDMs. Both LPS and C14:0 CL induced TNF-α secretion in WT but not in TLR4-KO BMDMs (Fig. 4b). TLR4-KO BMDMs were normally responsive to TLR2 ligand Pam3CSK4 (data not shown).
as §2, with “Graphs are representative of at least three independent experiments” left out

Where [5] appears, read: HEK293 hTLR4/hMD2/hCD14, 1 h CL, washed, 6 h LPS, Prism fit of Fig. 8 data.

Structures are written as SMILES.

Experimental findings from paper PMC6697720, “Saturation of acyl chains converts cardiolipin from an antagonist to an activator of Toll-like receptor-4” (Cellular and Molecular Life Sciences: CMLS, 2019) are described below.

T1 sequence (O00206 24-839): as the sequence (O00206 24-839) above
T1 sequence (Q9Y6Y9 19-160): as the sequence (Q9Y6Y9 19-160) above

With `CCCC/C=C\CCCCCCCC(=O)OC[C@H](COP(=O)(O)OCC(O)COP(=O)(O)OC[C@@H](COC(=O)CCCCCCC/C=C\CCCC)OC(=O)CCCCCCC/C=C\CCCC)OC(=O)CCCCCCC/C=C\CCCC` (stereo partly shown) [C14:1 CL], the TNF-α secretion result in experiment [1] was “not”. The “inhibition of LPS-induced signaling (LPS dose-response, 0 to 1000 ng/mL), mode of action” value (“inhibition of LPS-induced signaling” for short) in experiment [2] (washed, 6 h LPS) is recorded as “competitive TLR4 antagonists”. Also, the IC50 in experiment [2] (setting [5]) came out at 77.9 nM; in experiment [2] (HEK293 human TLR4/MD2/CD14), 77 nM. Further, the “difference in potency between C14:1 and C18:1” value in experiment [2] (ratio of IC50 values, Table 1) is given as 400 fold. Moreover, the NF-κB activation entry in experiment [3] is listed as “not”.

For the molecule `CCCCCCCCCCCCCCCC(=O)OC[C@H](COP(=O)(O)OCC(O)COP(=O)(O)OC[C@@H](COC(=O)CCCCCCCCCCCCCCC)OC(=O)CCCCCCCCCCCCCCC)OC(=O)CCCCCCCCCCCCCCC` (stereo partly shown) [C16:0 CL], the “activation of human TLR4 (NF-κB)” value in experiment [4] (6 h incubation) is on record as “activated”. Further, the “NF-κB induction in HEK293 cells transfected with TLR4 in the absence of CD14 or MD2” value in experiment [4] (hTLR4 without CD14 or without MD2, 6 h) is “not induced”. In experiment [1], the TNF-α secretion entry is listed as “induced”. The “inhibition of LPS-induced signaling” value in experiment [2] (washed, 6 h LPS) is reported as “did not inhibit”. The NF-κB activation result in experiment [3] was “induced”.

As to `CCCCCC/C=C\CCCCCCCC(=O)OC[C@H](COP(=O)(O)OCC(O)COP(=O)(O)OC[C@@H](COC(=O)CCCCCCC/C=C\CCCCCC)OC(=O)CCCCCCC/C=C\CCCCCC)OC(=O)CCCCCCC/C=C\CCCCCC` (stereo partly shown) [C16:1 CL], the TNF-α secretion result in experiment [1] is reported as “not”. Moreover, in experiment [2] (washed, 6 h LPS), the “inhibition of LPS-induced signaling” value is “competitive TLR4 antagonists”. For the same molecule, in experiment [2] (setting [5]), the IC50 was found to be 925 nM. Also, the NF-κB activation entry in experiment [3] is recorded as “not”.

Regarding `CCCCCCCC/C=C\CCCCCCCC(=O)OC[C@H](COP(=O)(O)OCC(O)COP(=O)(O)OC[C@@H](COC(=O)CCCCCCC/C=C\CCCCCCCC)OC(=O)CCCCCCC/C=C\CCCCCCCC)OC(=O)CCCCCCC/C=C\CCCCCCCC` (stereo partly shown) [C18:1 CL], the TNF-α secretion entry in experiment [1] is on record as “not”. In experiment [2] (washed, 6 h LPS), the “inhibition of LPS-induced signaling” value was “competitive TLR4 antagonists”. For the same molecule, the IC50 in experiment [2] (setting [5]) was found to be 33500 nM. Besides, the NF-κB activation result in experiment [3] is “not”.

A word on the IC50: it is the concentration that gives 50% inhibition.
